Data taken from the NIST ThermoML archive (doi:10.1016/j.jct.2019.03.040).
± gives the expanded uncertainty stated by the source.

How the values were obtained:
[1] = Liquid; for thermal diffusivity: 101.33 kPa, Laser flash apparatus
[2] = molar heat capacity at constant pressure; conditions: 101.33 kPa, Liquid, Small sample (50 mg) DSC

CCCOC(=O)CCC(C)=O [propyl levulinate]
Conditions	Critical pressure [kPa]	Critical temperature [K]	molar heat capacity at constant pressure [J/K/mol]	thermal diffusivity [m2/s]
[1], 303.15 K	–	–	–	7.82e-08 ± 4.2e-09
[1], 313.15 K	–	–	–	7.73e-08 ± 4.2e-09
[1], 323.15 K	–	–	–	7.62e-08 ± 4.1e-09
[1], 333.15 K	–	–	–	7.53e-08 ± 4e-09
[1], 343.15 K	–	–	–	7.37e-08 ± 4e-09
[1], 353.15 K	–	–	–	7.26e-08 ± 3.9e-09
[1], 363.15 K	–	–	–	7.22e-08 ± 3.9e-09
[1], Resistive pulse heating	2670 ± 80	674 ± 7	–	–
[2], 303.04 K	–	–	319.87 ± 7.9	–
[2], 303.54 K	–	–	320.34 ± 7.9	–
[2], 304.04 K	–	–	320.5 ± 7.9	–
[2], 304.54 K	–	–	320.03 ± 7.9	–
[2], 305.04 K	–	–	320.5 ± 7.9	–
[2], 305.54 K	–	–	320.34 ± 7.9	–
[2], 306.04 K	–	–	320.5 ± 7.9	–
[2], 306.54 K	–	–	320.19 ± 7.9	–
[2], 307.04 K	–	–	320.19 ± 7.9	–
[2], 307.54 K	–	–	320.82 ± 7.9	–
[2], 308.04 K	–	–	320.82 ± 7.9	–
[2], 308.54 K	–	–	321.45 ± 7.9	–
[2], 309.04 K	–	–	320.82 ± 7.9	–
[2], 309.54 K	–	–	321.14 ± 7.9	–
[2], 310.04 K	–	–	321.61 ± 7.9	–
[2], 310.54 K	–	–	321.14 ± 7.9	–
[2], 311.04 K	–	–	321.29 ± 7.9	–
[2], 311.54 K	–	–	321.29 ± 7.9	–
[2], 312.04 K	–	–	322.08 ± 7.9	–
[2], 312.54 K	–	–	321.45 ± 7.9	–
[2], 313.04 K	–	–	322.24 ± 7.9	–
[2], 313.54 K	–	–	322.08 ± 7.9	–
[2], 314.04 K	–	–	322.24 ± 7.9	–
[2], 314.54 K	–	–	322.24 ± 7.9	–
[2], 315.04 K	–	–	322.56 ± 7.9	–
[2], 315.54 K	–	–	322.88 ± 7.9	–
[2], 316.04 K	–	–	322.72 ± 7.9	–
[2], 316.54 K	–	–	322.24 ± 7.9	–
[2], 317.04 K	–	–	322.56 ± 7.9	–
[2], 317.54 K	–	–	323.03 ± 7.9	–
[2], 318.04 K	–	–	323.98 ± 7.9	–
[2], 318.54 K	–	–	323.19 ± 7.9	–
[2], 319.04 K	–	–	323.67 ± 7.9	–
[2], 319.54 K	–	–	324.14 ± 7.9	–
[2], 320.04 K	–	–	323.35 ± 7.9	–
[2], 320.54 K	–	–	323.83 ± 7.9	–
[2], 321.04 K	–	–	323.67 ± 7.9	–
[2], 321.54 K	–	–	323.83 ± 7.9	–
[2], 322.04 K	–	–	323.83 ± 7.9	–
[2], 322.54 K	–	–	324.62 ± 7.9	–
[2], 323.04 K	–	–	324.46 ± 7.9	–
[2], 323.54 K	–	–	324.46 ± 7.9	–
[2], 324.04 K	–	–	324.3 ± 7.9	–
[2], 324.54 K	–	–	324.93 ± 7.9	–
[2], 325.04 K	–	–	324.93 ± 7.9	–
[2], 325.54 K	–	–	325.25 ± 7.9	–
[2], 326.04 K	–	–	325.57 ± 7.9	–
[2], 326.54 K	–	–	325.72 ± 7.9	–
[2], 327.04 K	–	–	325.88 ± 7.9	–
[2], 327.54 K	–	–	325.72 ± 7.9	–
[2], 328.04 K	–	–	326.04 ± 8.1	–
[2], 328.54 K	–	–	326.67 ± 8.1	–
[2], 329.04 K	–	–	325.72 ± 7.9	–
[2], 329.54 K	–	–	326.51 ± 8.1	–
[2], 330.04 K	–	–	326.2 ± 8.1	–
[2], 330.54 K	–	–	326.83 ± 8.1	–
[2], 331.04 K	–	–	326.83 ± 8.1	–
[2], 331.54 K	–	–	327.15 ± 8.1	–
[2], 332.04 K	–	–	326.83 ± 8.1	–
[2], 332.54 K	–	–	327.15 ± 8.1	–
[2], 333.04 K	–	–	326.83 ± 8.1	–
[2], 333.54 K	–	–	327.31 ± 8.1	–
[2], 334.04 K	–	–	327.62 ± 8.1	–
[2], 334.54 K	–	–	328.1 ± 8.1	–
[2], 335.04 K	–	–	328.41 ± 8.1	–
[2], 335.54 K	–	–	328.73 ± 8.1	–
[2], 336.04 K	–	–	328.41 ± 8.1	–
[2], 336.54 K	–	–	328.25 ± 8.1	–
[2], 337.04 K	–	–	328.57 ± 8.1	–
[2], 337.54 K	–	–	328.57 ± 8.1	–
[2], 338.04 K	–	–	329.2 ± 8.1	–
[2], 338.54 K	–	–	328.89 ± 8.1	–
[2], 339.04 K	–	–	329.05 ± 8.1	–
[2], 339.54 K	–	–	329.2 ± 8.1	–
[2], 340.04 K	–	–	328.89 ± 8.1	–
[2], 340.54 K	–	–	329.36 ± 8.1	–
[2], 341.04 K	–	–	329.84 ± 8.1	–
[2], 341.54 K	–	–	329.99 ± 8.1	–
[2], 342.04 K	–	–	329.68 ± 8.1	–
[2], 342.54 K	–	–	329.36 ± 8.1	–
[2], 343.04 K	–	–	330.31 ± 8.1	–
[2], 343.54 K	–	–	330.31 ± 8.1	–
[2], 344.04 K	–	–	330.15 ± 8.1	–
[2], 344.54 K	–	–	330.15 ± 8.1	–
[2], 345.04 K	–	–	330.63 ± 8.1	–
[2], 345.54 K	–	–	331.1 ± 8.1	–
[2], 346.04 K	–	–	331.1 ± 8.1	–
[2], 346.54 K	–	–	330.94 ± 8.1	–
[2], 347.04 K	–	–	331.58 ± 8.1	–
[2], 347.54 K	–	–	331.58 ± 8.1	–
[2], 348.04 K	–	–	331.73 ± 8.1	–
[2], 348.54 K	–	–	332.05 ± 8.1	–
[2], 349.04 K	–	–	331.89 ± 8.1	–
[2], 349.54 K	–	–	332.05 ± 8.1	–
[2], 350.04 K	–	–	332.37 ± 8.1	–
[2], 350.54 K	–	–	332.68 ± 8.2	–
[2], 351.04 K	–	–	333.16 ± 8.2	–
[2], 351.54 K	–	–	333 ± 8.2	–
[2], 352.04 K	–	–	333 ± 8.2	–
[2], 352.54 K	–	–	333.16 ± 8.2	–
[2], 353.04 K	–	–	333.95 ± 8.2	–
[2], 353.54 K	–	–	333.47 ± 8.2	–
[2], 354.04 K	–	–	334.27 ± 8.2	–
[2], 354.54 K	–	–	334.27 ± 8.2	–
[2], 355.04 K	–	–	334.42 ± 8.2	–
[2], 355.54 K	–	–	334.74 ± 8.2	–
[2], 356.04 K	–	–	334.27 ± 8.2	–
[2], 356.54 K	–	–	334.42 ± 8.2	–
[2], 357.04 K	–	–	334.58 ± 8.2	–
[2], 357.54 K	–	–	334.58 ± 8.2	–
[2], 358.04 K	–	–	335.22 ± 8.2	–
[2], 358.54 K	–	–	335.37 ± 8.2	–
[2], 359.04 K	–	–	335.85 ± 8.2	–
[2], 359.54 K	–	–	335.85 ± 8.2	–
[2], 360.04 K	–	–	335.53 ± 8.2	–
[2], 360.54 K	–	–	336.01 ± 8.2	–
[2], 361.04 K	–	–	336.32 ± 8.2	–
[2], 361.54 K	–	–	336.64 ± 8.2	–
[2], 362.04 K	–	–	336.16 ± 8.2	–
[2], 362.54 K	–	–	336.01 ± 8.2	–
[2], 363.04 K	–	–	336.16 ± 8.2	–
[2], 363.54 K	–	–	336.64 ± 8.2	–
[2], 364.04 K	–	–	337.11 ± 8.2	–
[2], 364.54 K	–	–	337.11 ± 8.2	–
[2], 365.04 K	–	–	337.11 ± 8.2	–
[2], 365.54 K	–	–	337.11 ± 8.2	–
[2], 366.04 K	–	–	337.9 ± 8.2	–
[2], 366.54 K	–	–	337.9 ± 8.2	–
[2], 367.04 K	–	–	337.59 ± 8.2	–
[2], 367.54 K	–	–	337.59 ± 8.2	–
[2], 368.04 K	–	–	338.06 ± 8.2	–
[2], 368.54 K	–	–	338.06 ± 8.2	–
[2], 369.04 K	–	–	337.75 ± 8.2	–
[2], 369.54 K	–	–	337.9 ± 8.2	–
[2], 370.04 K	–	–	338.22 ± 8.2	–
[2], 370.54 K	–	–	338.06 ± 8.2	–
[2], 371.04 K	–	–	338.54 ± 8.2	–
[2], 371.54 K	–	–	338.54 ± 8.2	–
[2], 372.04 K	–	–	338.7 ± 8.2	–
[2], 372.54 K	–	–	339.49 ± 8.4	–
[2], 373.04 K	–	–	339.33 ± 8.4	–
[2], 373.54 K	–	–	339.49 ± 8.4	–
[2], 374.04 K	–	–	340.12 ± 8.4	–
[2], 374.54 K	–	–	340.75 ± 8.4	–
